Assay results as given in US11149028B2, “Methods for treating melanoma using small molecules” (NOVA SOUTHEASTERN UNIVERSITY, priority 2016, dated 2021).

Columns and labels:
CHO-K1 cells = experiment: CellTiter-Glo viability assay, CHO-K1 healthy control cells; assay type: cell-based; conditions: individual compounds
Procedure: Mixture libraries were solubilized in 3% DMSO/H2O and added to polypropylene 384 well plates (Greiner cat #781280). 1,250 CHO-K1, A549, or M14 cells were plated in 384-well plates in 5 μL of serum-free media (F12 for CHO-K1 and A549, DMEM for M14). Test compounds and gefitinib (pharmacological assay control) were prepared as 10-point, 1:3 serial dilutions starting at 300 then added to the cells (5 μL per well) using the Biomek NX^P. Plates were incubated for 72 h at 37° C., 5% CO2 and 95% RH. After incubation, 5 μL of CellTiter-Glo® (Promega cat #: G7570) were added to each well, and incubated for 15 min at room temperature. Luminescence was recorded using a Biotek Synergy H4 multimode microplate reader. Viability was expressed as a percentage relative to wells containing media only (0%) and wells containing cells treated with 1% DMSO only (100%). Three parameters were calculated on a per-plate basis: (a) the signal-to-background ratio (SB); (b) the coefficient for variation [CV; CV=(standard deviation/mean)×100)] for all compound test wells; and (c) the Z′-factor (18). The IC50 value of the pharmacological control (gefitinib, LC Laboratories #G-4408) was also calculated to ascertain the assay robustness. Time course viability assay was performed as described for library screening with luminescence measurements performed at 4, 24, 48, and 72 h.

HDAC1 = HDAC1 (Homo sapiens, UniProt Q13547); experiment: HDAC inhibition testing; assay type: biochemical; conditions: up to 100 μM
HDAC1, sequence (Q13547 whole entry, species assumed): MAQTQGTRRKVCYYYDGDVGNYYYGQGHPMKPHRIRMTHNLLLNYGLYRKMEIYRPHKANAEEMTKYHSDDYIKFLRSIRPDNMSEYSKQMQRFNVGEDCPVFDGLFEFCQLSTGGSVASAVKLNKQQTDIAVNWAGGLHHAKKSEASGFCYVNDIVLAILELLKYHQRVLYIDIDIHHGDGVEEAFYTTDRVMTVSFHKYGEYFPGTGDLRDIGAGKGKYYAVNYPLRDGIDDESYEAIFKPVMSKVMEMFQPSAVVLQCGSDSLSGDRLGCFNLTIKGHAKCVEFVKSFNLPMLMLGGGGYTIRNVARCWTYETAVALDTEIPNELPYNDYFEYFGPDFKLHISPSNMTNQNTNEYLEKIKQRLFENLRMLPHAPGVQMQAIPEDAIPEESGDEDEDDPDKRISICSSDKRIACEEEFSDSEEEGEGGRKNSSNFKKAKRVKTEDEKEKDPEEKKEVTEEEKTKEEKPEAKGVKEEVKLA

HEPG2 cell line = experiment: Viability of HEPG2 liver cancer cells; assay type: cell-based
[1] = test system: caspase 3/7 in WM266-4 cells; experiment: Caspase 3/7 activity assay; assay type: cell-based, human; conditions: 0 and 4 h
Procedure: WM266-4 and M14 cells were plated in 384-well plates in 5 μL of complete media (EMEM and RPMI-1640, respectively). 5 μL of 200 μM 2155-14 and 2155-18 were added to the cells. Plates were incubated at 37° C., 5% CO2 and 95% relative humidity for various lengths of time. After incubation, 5 μL of caspase 3/7, caspase 8, and caspase 9 Glo® reagent (Promega cat #: G7570) were added to each well, and incubated for 15 min at room temperature. Luminescence was recorded using a Biotek Synergy H4 multimode microplate reader.

HDAC2 = HDAC2 (Homo sapiens, UniProt Q92769); experiment: HDAC inhibition testing; assay type: biochemical; conditions: up to 100 μM
HDAC2, sequence (Q92769 whole entry): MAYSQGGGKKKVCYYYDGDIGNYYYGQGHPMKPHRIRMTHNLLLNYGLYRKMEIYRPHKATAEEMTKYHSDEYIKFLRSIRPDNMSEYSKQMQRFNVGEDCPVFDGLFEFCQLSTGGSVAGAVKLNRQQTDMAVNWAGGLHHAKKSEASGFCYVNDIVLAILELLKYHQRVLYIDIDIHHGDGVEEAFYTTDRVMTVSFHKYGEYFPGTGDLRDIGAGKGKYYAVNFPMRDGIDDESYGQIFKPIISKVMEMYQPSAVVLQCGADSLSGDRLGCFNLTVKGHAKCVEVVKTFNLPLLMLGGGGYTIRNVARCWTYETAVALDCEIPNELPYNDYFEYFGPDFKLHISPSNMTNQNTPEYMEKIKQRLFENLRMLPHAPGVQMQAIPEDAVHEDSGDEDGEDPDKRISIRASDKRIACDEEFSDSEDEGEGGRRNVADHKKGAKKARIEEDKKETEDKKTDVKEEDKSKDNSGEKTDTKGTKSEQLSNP

HDAC6 = HDAC6 (Homo sapiens, UniProt Q9UBN7); experiment: HDAC inhibition testing; assay type: biochemical; conditions: up to 100 μM
HDAC6, sequence (Q9UBN7 whole entry, species assumed): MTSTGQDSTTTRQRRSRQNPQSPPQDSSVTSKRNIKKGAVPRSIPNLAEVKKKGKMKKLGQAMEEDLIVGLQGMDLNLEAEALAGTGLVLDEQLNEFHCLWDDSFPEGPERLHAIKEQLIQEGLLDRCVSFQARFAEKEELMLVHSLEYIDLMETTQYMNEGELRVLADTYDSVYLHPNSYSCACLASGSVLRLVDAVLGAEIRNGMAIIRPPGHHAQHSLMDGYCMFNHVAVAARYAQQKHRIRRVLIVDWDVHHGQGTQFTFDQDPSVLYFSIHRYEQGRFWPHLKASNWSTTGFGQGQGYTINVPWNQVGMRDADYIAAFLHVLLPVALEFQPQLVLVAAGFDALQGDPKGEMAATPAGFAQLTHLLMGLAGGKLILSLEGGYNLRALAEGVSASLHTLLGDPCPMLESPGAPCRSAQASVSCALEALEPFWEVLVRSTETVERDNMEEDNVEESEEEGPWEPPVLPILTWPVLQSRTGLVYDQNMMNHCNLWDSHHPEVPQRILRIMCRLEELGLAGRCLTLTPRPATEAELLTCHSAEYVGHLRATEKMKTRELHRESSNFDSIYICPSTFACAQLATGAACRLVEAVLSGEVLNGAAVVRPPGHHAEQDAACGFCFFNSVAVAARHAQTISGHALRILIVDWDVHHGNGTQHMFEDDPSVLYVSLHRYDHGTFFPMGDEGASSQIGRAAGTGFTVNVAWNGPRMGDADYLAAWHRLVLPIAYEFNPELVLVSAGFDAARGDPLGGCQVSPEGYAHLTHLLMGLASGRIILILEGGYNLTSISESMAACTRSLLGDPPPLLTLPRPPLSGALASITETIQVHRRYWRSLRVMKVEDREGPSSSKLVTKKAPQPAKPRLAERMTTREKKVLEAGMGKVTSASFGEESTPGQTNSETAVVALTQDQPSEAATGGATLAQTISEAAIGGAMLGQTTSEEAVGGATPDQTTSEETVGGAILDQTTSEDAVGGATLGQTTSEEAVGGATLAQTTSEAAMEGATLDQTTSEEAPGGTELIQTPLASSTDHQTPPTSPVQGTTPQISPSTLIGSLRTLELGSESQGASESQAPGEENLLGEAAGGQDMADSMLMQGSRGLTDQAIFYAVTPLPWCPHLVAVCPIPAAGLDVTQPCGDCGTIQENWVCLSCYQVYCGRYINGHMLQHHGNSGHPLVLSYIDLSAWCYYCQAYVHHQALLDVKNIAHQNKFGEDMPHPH

[2] = test system: SKMEL-28 melanoma cell line; experiment: Hexosaminidase viability assay, SKMEL-28; assay type: cell-based; conditions: Homo sapiens, SK-MEL-28; for IC50: V600EBRAF mutation
Procedure: (§1) Hexosaminidase assay was used to study the effects of 2155-14 and 2155-18 on cell viability or cell proliferation of both B16/F-10 and SKMEL-28 cells
(§2) (Landegren, U. Measurement of cell numbers by means of the endogenous enzyme hexosaminidase. Applications to detection of lymphokines and cell surface antigens. J Immunol Methods 1984, 67, 379-388). In brief, cells were plated in 96 well plates, grown overnight and treated the next day with increasing concentrations of compounds (0-50 μM) for 48 h. After 48 h of treatment, media was discarded and cells were washed with PBS to remove residual media from wells. Hexosaminidase substrate (75 μL) (Sigma Aldrich; cat #N9376) was added to each well, incubated at 37° C. for 30 min followed by addition of 112.5 μL of developer into each well. Final absorbance was measured at λ=405 nm. Cell growth was calculated as percent viability=[([…])×100], where A and B were the absorbance of treated and control cells, respectively.

[3] = test system: B16/F10 murine metastatic melanoma; experiment: Hexosaminidase viability assay, B16/F10; assay type: cell-based; conditions: Mus musculus; for IC50: p53 mutation
Procedure: as §1, §2

[4] = test system: mouse embryonic fibroblasts (MEF); experiment: Viability of mouse embryonic fibroblasts; assay type: cell-based
Procedure: Cells were plated in 384-well plates in 8 μL of media. Test compounds and dabrafenib (pharmacological assay control) were prepared as 10-point, 1:3 serial dilutions starting at 300 μM, then added to the cells (4 μL per well) using the Biomek Plates were incubated for 72 h at 37° C., 5% CO2 and 95% relative humidity. After incubation, 4 μL of CellTiter-Glo® (Promega cat #: G7570) were added to each well, and incubated for 15 min at room temperature. Luminescence was recorded using a Biotek Synergy H4 multimode microplate reader. Viability was expressed as a percentage relative to wells containing media only (0%) and wells containing cells treated with DMSO only (100%). Three parameters were calculated on a per-plate basis: (a) the signal-to-background ratio (SB); (b) the coefficient for variation [CV; CV=(standard deviation/mean)×100)] for all compound test wells; and (c) the Z′-factor (18). The IC50 value of the pharmacological control (dabrafenib, LC Laboratories #G-4408) was also calculated to ascertain the assay robustness. In case of viability rescue assays, cells were pre-treated with caspase, calpain, and autophagy inhibitors for 1-3 h before addition of test compounds. Time course viability assay was done with luminescence measurements performed at 4, 24, 48, and 72 h.

MDA-MB-231 cell line = experiment: Viability of MDA-MB-231 breast cancer cells; assay type: cell-based
[5] = test system: MAPK/PI3K dual phosphorylation of WM266-4 cells; experiment: MAPK-Akt flow cytometry assay; assay type: cell-based, human; conditions: 48 h, 25 μM
Procedure: WM266-4 cells were seeded at 250,000 cells/well in E-MEM medium supplemented with 10% FBS and 1% penicillin/streptomycin in 6 well plates (Greiner Bio-One CellStar cat #655180) and allowed to adhere overnight. After incubation cells were treated with control (25 μM dabrafenib+25 μM trametinib), and 25 μM 2155-14 and 18 for 24 and 48 hours. Manufacturer's instructions for Muse™ PI3K/MAPK Dual Pathway Activation kit (EMD Millipore MCH200108) were followed. Cells were harvested, washed with PBS, and re-suspended in 1× assay buffer supplemented with fixation buffer and incubated on ice for 10 min. Cells were permeabilized with permeablization buffer supplied with the kit and incubated with an antibody cocktail (5 μL of Anti-Akt/PKB+5 μL of Anti-phospho-Akt). Cells were analyzed on Muse flow cytometer (EMD Millipore) using PI3K/MAPK Dual Pathway sub-routine.

SMILES | IC50 (CHO-K1 cells; Cricetulus griseus, CHO-K1) [nM] | HDAC1 inhibition (HDAC1) | selectivity against HEPG2 cell line (HEPG2 cell line) | caspase 3/7 activity vs untreated control [1] | HDAC2 inhibition (HDAC2) | HDAC6 inhibition (HDAC6) | IC50 [2] [nM] | cytotoxicity at 10 µM ([2]; starting at 10 μM, read-out: inhibition of SKMEL-28 viability) [%] | IC50 [3] [nM] | cytotoxicity at 10 µM ([3]; starting at 10 μM, read-out: inhibition of B16/F10 viability) [%] | toxicity to mouse embryonic fibroblasts [4] | selectivity against MDA-MB-231 cell line (MDA-MB-231 cell line) | PI3K-activated cells [5] | cells with single pathway activation [5] | decrease of cell population with dual pathway activation vs untreated control [5] [%] | increase of cells where both pathways were inactive [5] | selectivity over CHO-K1 healthy control cells (CHO-K1 cells) | effect on MAPK/PI3K cell populations [5]
O=C1NC[C@H](Cc2ccccc2)N(C[C@@H]2CCCN2C[C@@H](CC2CCCCC2)N2C[C@H](Cc3ccc(O)cc3)N(CCc3ccccc3)C(=O)C2=O)C1=O [Compound 2155-14, (S)-1((R)-1((S)-2-(((S)-6-benzyl-2,3-dioxopiperazin-1-yl)methyl)pyrrolidin-1-yl)-3-cyclohexylpropan-2-yl)-5-(4-hydroxybenzyl)-4-phenethylpiperazine-2,3-dione] | > 100000 | lack of HDAC inhibition | selective | not statistically different from untreated control | lack of HDAC inhibition | lack of HDAC inhibition | 563 ± 40 | ~100 | 2700 ± 200 | ~100 | not toxic | selective | absence of PI3K activation | not significantly affected | ~20 | approximately 10% | – | –
O=C1NC[C@H](Cc2ccccc2)N(C[C@@H]2CCCN2C[C@H](Cc2ccccc2)N2C[C@H](Cc3ccc(O)cc3)N(CCC34CC5CC(CC(C5)C3)C4)C(=O)C2=O)C1=O [Compound 2155-18, (S)-4-(2-(adamantan-1yl)ethyl)-1-((S)-1-((S)-2-(((S)-6-benzyl-2,3-dioxopiperazin-1-yl)methyl)pyrrolidin-1-yl)-3-phenylpropan-2-yl)-5-(4-hydroxybenzyl)piperazine-2,3-dione] | – | lack of HDAC inhibition | selective | not statistically different from untreated control | lack of HDAC inhibition | lack of HDAC inhibition | 890 ± 70 | – | 1150 | – | not toxic | selective | – | – | – | – | maintaining selectivity for CHO-K1 cells | no effect on either cell population
